Measured values: patent US12006301B1, “And synthesis of dual 5-HT1A and 5-HT7 receptor ligands” (Florida A&M University, priority 2021, dated 2024)
Structures can show the parent of a compound that is named as a salt. Where two headings read alike, the source gives them in different places.

Experiments:
D2R = D2R (Homo sapiens, UniProt P14416); assay: NIMH-PDSP radioligand binding affinity, D2; details: for inhibition at 10 µM: read-out: D2 binding, 50% threshold inhibition (MT)
[1] = biological target: serotonin transporter (SERT) (Homo sapiens, UniProt P31645); assay: NIMH-PDSP radioligand binding affinity, SERT; details: read-out: SERT binding, 50% threshold inhibition (MT)
Chain of serotonin transporter (SERT) (P31645 whole entry, species assumed): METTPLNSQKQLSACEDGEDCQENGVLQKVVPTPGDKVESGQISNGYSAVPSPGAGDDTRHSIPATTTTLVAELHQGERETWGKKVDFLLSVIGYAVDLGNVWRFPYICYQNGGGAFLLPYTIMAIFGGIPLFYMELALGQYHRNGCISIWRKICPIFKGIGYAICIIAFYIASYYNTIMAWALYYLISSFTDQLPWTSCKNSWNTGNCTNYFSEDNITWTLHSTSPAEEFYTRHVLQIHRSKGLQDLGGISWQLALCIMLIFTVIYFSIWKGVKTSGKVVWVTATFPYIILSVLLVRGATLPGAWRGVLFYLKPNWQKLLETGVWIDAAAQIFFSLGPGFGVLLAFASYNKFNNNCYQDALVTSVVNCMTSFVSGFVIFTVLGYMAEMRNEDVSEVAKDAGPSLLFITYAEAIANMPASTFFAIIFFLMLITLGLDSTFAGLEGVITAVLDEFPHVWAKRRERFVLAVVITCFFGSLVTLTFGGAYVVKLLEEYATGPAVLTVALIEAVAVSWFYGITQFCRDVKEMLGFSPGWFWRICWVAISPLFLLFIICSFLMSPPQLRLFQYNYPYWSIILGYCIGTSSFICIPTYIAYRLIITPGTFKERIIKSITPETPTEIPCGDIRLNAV
Procedure: Binding affinities reported in Tables 1-3 were conducted by the National Institute of Mental Health Psychoactive Drug Screening Program (NIMH-PDSP).

[2] = animal models, rats, cited from earlier work
[3] = animal studies, cited from earlier work
5-HT2CR = biological target: T1, 5-HT2CR (Homo sapiens, UniProt P28335); assay: NIMH-PDSP radioligand binding affinity, 5-HT2C; details: for inhibition at 10 µM: read-out: 5-HT2C binding, 50% threshold inhibition (MT)
T1 sequence (P28335 33-458): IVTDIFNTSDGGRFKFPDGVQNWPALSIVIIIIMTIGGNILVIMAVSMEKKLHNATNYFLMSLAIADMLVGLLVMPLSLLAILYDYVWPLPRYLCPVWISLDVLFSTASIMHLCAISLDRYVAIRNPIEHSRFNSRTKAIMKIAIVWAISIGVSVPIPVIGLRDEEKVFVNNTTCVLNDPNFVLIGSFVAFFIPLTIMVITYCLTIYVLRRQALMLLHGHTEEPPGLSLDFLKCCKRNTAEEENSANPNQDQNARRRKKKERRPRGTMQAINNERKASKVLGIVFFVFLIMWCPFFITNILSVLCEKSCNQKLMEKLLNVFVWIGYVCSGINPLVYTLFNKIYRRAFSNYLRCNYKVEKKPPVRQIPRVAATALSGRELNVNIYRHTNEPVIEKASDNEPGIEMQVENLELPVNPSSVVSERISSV

5-HT7AR = biological target: T2, 5-HT7AR (Homo sapiens, UniProt P34969); assay: HEK-5-HT7A/cAMP adenylate cyclase functional assay, agonist effects; assay type: cell-based
T2 construct: expressed in transfected cells; host or cells: Human embryonic kidney (HEK) cells, transient transfection with PEI
T2 sequence (P34969 1-445 isoform P34969-2): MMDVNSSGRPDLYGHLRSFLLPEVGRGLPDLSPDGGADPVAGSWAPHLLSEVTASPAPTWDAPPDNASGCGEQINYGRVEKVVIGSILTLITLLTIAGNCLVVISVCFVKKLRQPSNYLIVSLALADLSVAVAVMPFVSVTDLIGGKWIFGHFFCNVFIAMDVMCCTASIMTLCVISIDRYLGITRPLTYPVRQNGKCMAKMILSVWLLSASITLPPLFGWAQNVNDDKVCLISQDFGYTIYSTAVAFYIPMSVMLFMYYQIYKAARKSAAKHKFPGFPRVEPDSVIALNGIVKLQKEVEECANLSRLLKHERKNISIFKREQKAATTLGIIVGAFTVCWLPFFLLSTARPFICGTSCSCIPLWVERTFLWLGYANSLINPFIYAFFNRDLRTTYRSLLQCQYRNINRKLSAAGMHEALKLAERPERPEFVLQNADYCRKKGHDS

D3R = D3R (Homo sapiens, UniProt P35462); assay: NIMH-PDSP radioligand binding affinity, D3
Chain of D3R (P35462 whole entry): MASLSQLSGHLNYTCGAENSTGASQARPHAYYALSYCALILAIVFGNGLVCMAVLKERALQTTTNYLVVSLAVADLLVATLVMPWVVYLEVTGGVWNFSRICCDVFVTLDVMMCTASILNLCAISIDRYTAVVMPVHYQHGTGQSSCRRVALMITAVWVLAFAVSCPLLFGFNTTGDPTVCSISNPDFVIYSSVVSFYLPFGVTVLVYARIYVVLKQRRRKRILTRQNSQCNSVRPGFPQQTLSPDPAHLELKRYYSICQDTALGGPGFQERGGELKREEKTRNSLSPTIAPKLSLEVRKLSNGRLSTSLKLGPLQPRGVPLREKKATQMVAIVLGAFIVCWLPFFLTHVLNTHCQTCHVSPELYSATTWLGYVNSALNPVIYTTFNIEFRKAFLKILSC

D4R = biological target: T3, D4R (Homo sapiens, UniProt P21917); assay: NIMH-PDSP radioligand binding affinity, D4; details: read-out: D4 binding, 50% threshold inhibition (MT)
T3 sequence (P21917 1-419): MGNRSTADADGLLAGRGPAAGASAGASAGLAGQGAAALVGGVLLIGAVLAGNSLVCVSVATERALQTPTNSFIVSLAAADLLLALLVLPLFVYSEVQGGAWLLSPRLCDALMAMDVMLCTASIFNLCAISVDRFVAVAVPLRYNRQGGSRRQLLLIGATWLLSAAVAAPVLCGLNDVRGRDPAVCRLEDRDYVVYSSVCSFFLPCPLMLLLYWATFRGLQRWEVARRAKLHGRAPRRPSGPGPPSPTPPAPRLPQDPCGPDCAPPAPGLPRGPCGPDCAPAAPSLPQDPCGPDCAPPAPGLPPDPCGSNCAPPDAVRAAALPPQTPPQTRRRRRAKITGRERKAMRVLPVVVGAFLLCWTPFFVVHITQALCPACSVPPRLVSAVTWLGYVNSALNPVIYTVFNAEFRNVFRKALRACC

Chain of D2R (P14416 whole entry): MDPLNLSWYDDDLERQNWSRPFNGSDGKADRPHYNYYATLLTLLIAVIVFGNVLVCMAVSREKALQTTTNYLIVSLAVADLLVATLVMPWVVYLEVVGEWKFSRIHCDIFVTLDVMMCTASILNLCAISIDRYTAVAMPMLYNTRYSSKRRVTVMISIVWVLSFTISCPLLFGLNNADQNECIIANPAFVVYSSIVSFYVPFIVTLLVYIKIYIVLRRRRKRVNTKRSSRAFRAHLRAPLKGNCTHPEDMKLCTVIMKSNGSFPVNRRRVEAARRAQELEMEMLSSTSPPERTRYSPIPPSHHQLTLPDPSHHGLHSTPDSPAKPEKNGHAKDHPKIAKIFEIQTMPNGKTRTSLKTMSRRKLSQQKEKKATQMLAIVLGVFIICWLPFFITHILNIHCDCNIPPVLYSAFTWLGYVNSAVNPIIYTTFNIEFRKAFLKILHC

SMILES | melting point | inhibition at 10 µM [1] | further results
O=C1c2ccc(Cl)cc2CC1CCCN1CCN(c2ccccn2)CC1 (centres unmarked) [Compound 19, 5-chloro-2-(3-(4-(pyridin-2-yl)piperazin-1-yl)propyl)-2,3-dihydro-1H-inden-1-one] | – | – | inhibition at 10 µM (D2R): < 50%
O=C1CCc2cc(OCCCN3CCN(c4ccccn4)CC3)ccc2N1 [Compound 9, 6-(3-(4-(pyridin-2-yl)piperazin-1-yl)propoxy)-3,4-dihydroquinolin-2(1H)-one] | 154 to 155 °C | – | –
CC(=O)Nc1ccc(C(=O)CCCN2CCN(c3ccccn3)CC2)cc1 [Compound 3, N-(4-(4-(4-(pyridin-2-yl)piperazin-1-yl)butanoyl)phenyl) acetamide oxalate] | – | < 50% | –
O=C1c2ccc(Cl)cc2CC1CCCN1CCN(c2ccccn2)CC1 (centres unmarked) [drawing 43] | – | < 50% | –
Fc1ccc(CCCCN2CCN(c3ccccn3)CC2)cc1 [Compound 2, 1-(4-(4-fluorophenyl)butyl)-4-(pyridin-2-yl)piperazine] | – | – | catalepsy / motoric side effects (in words) [2]: low propensity to cause catalepsy; catalepsy / motoric side effects (in words) ([2]; listed as SYA 16263): low propensity to cause motoric side effects; catalepsy / motoric side effects (in words) ([2]; listed as SYA16263): absence of catalepsy; antipsychotic-like activity (in words) ([3]; listed as SYA 16263): moderate antipsychotic-like activity; antipsychotic-like activity (in words) ([3]; listed as SYA16263): antipsychotic-like properties
OC1c2ccc(F)cc2CC1CCN1CCN(c2ccccn2)CC1 (centres unmarked) [Compound 14, 5-Fluoro-2-[2-(4-pyridin-2-yl-piperazin-1-yl)-ethyl]-indan-1-ol] | – | – | inhibition at 10 µM (5-HT2CR): < 50%
O=C1CCc2cc(C(=O)CCCN3CCN(c4ccccn4)CC3)ccc2N1 [Compound 7, 6-(4-(4-(pyridin-2-yl)piperazin-1-yl)butanoyl)-3,4-dihydroquinolin-2(1H)-one] | 192 to 193 °C | < 50% | inhibition at 10 µM (5-HT2CR): < 50%
O=C1CCc2cc(OCCCN3CCCN(c4ccccn4)CC3)ccc2N1 (as salt: oxalate) [Compound 10, 6-(3-(4-(pyridin-2-yl)-1,4-diazepan-1-yl)propoxy)-3,4-dihydroquinolin-2(1H)-one oxalate] | 190 to 192 °C | – | –
O=C1c2cc(Cl)ccc2CC1CCN1CCN(c2ccccn2)CC1 (centres unmarked) [Compound 17, 6-chloro-2-(2-(4-(pyridin-2-yl)piperazin-1-yl)ethyl)-2,3-dihydro-1H-inden-1-one] | – | < 50% | –
Clc1ccc2c(c1)CC(CCN1CCN(c3ccccn3)CC1)C2 (centres unmarked) (as salt: HCl) [Compound 16, 1-(2-(5-chloro-2,3-dihydro-1H-inden-2-yl)ethyl)-4-(pyridin-2-yl)piperazine] | 267 to 270 °C | – | –
OC1c2ccc(F)cc2CC1CCN1CCN(c2ccccn2)CC1 (centres unmarked) (as salt: hydroiodid) [Compound 14, 5-Fluoro-2-[2-(4-pyridin-2-yl-piperazin-1-yl)-ethyl]-indan-1-ol] | 174 to 175 °C | – | –
NCCc1c[nH]c2ccc(O)cc12 [Serotonin] | – | – | agonist activity at 5-HT7AR (in words) (5-HT7AR): showed agonist properties
O=C1c2ccc(Cl)cc2CC1CCN1CCN(c2ccccn2)CC1 (centres unmarked) [Compound 15, 5-chloro-2-(2-(4-(pyridin-2-yl)piperazin-1-yl)ethyl)-2,3-dihydro-1H-inden-1-one] | 132 to 135 °C | < 50% | binding affinity at D2R (in words) (D2R): lost; inhibition at 10 µM (D2R): < 50%; binding affinity at D3R (in words) (D3R): lost; inhibition at 10 µM (D3R; read-out: D3 binding, 50% threshold inhibition (MT)): < 50%
O=C1CCc2cc(OCCCN3CCCN(c4ccccn4)CC3)ccc2N1 [Compound 10, 6-(3-(4-(pyridin-2-yl)-1,4-diazepan-1-yl)propoxy)-3,4-dihydroquinolin-2(1H)-one oxalate] | – | – | inhibition at 10 µM (D4R): < 50%
Nc1ccc(CCCCN2CCN(c3ccccn3)CC2)cc1 [Compound 6, 4-(4-(4-(pyridin-2-yl)piperazin-1-yl)butyl)aniline] | – | < 50% | inhibition at 10 µM (5-HT2CR): < 50%
Nc1ccc(C(=O)CCCN2CCN(c3ccccn3)CC2)cc1 [Compound 5, 1-(4-aminophenyl)-4-(4-(pyridin-2-yl)piperazin-1-yl)butan-1-one] | 203 to 204 °C | < 50% | –
CC(=O)Nc1ccc(C(=O)CCCN2CCN(c3ccccn3)CC2)cc1 (as salt: oxalate) [Compound 3, N-(4-(4-(4-(pyridin-2-yl)piperazin-1-yl)butanoyl)phenyl) acetamide oxalate] | 140 to 142 °C | – | –
O=C1c2ccc(Cl)cc2CC1CCCCN1CCN(c2ccccn2)CC1 (centres unmarked) (as salt: HCl) [Compound 20, 5-chloro-2-(4-(4-(pyridin-2-yl)piperazin-1-yl)butyl)-2,3-dihydro-1H-inden-1-one] | 233 to 234 °C | – | –
O=C1c2ccc(F)cc2CC1CCN1CCN(c2ccccn2)CC1 (centres unmarked) [Compound 13, 5-Fluoro-2-(2-(4-(pyridin-2-yl)piperazin-1-yl)ethyl)-2,3-dihydro-1H-inden-1-one] | – | < 50% | 5-HT2C binding, 50% threshold inhibition (MT) (5-HT2CR; 10 µM): MT (key: MT = missed 50% threshold inhibition at 10 μM concentration); binding affinity at D2R (in words) (D2R): complete loss of binding affinity; inhibition at 10 µM (D2R): < 50%
O=C1c2cc(Cl)c(Cl)cc2CC1CCN1CCN(c2ccccn2)CC1 (centres unmarked) [Compound 18, 5,6-Dichloro-2-(2-(4-(pyridin-2-yl)piperazin-1-yl)ethyl)-2,3-dihydro-1H-inden-1-one] | – | < 50% | –
O=C(CCCN1CCN(c2ccccn2)CC1)c1ccc2c(c1)CCC2 [Compound 12, 1-(2,3-Dihydro-1H-inden-5-yl)-4-(4-(pyridin-2-yl)piperazin-1-yl)butan-1-one] | 74 to 75 °C | < 50% | –
O=C1CCc2cc(CCCCN3CCN(c4ccccn4)CC3)ccc2N1 [Compound 8, 6-(4-(4-(pyridin-2-yl)piperazin-1-yl)butyl)-3,4-dihydroquinolin-2(1H)-one] | 144 to 145 °C | – | –
Clc1ccc2c(c1)CC(CCN1CCN(c3ccccn3)CC1)C2 (centres unmarked) [Compound 16, 1-(2-(5-chloro-2,3-dihydro-1H-inden-2-yl)ethyl)-4-(pyridin-2-yl)piperazine] | – | < 50% | –
CC(=O)Nc1ccc(CCCCN2CCN(c3ccccn3)CC2)cc1 [Compound 4, N-(4-(4-(4-(pyridin-2-yl)piperazin-1-yl)butyl)phenyl)acetamide] | – | < 50% | –
O=C1CCc2cc(OCCCN3CCN(c4ccccn4)CC3)ccc21 [Compound 11, 5-(3-(4-(pyridin-2-yl)piperazin-1-yl)propoxy)-2,3-dihydro-1H-inden-1-one] | 103 to 104 °C | < 50% | inhibition at 10 µM (D2R): < 50%
